Measured values reported in ChEMBL document CHEMBL3885861, “Open TG-GATES”.

Organism: Rattus norvegicus
Assay: Open TG-GATES - Regimen: Single
Assay type: toxicity, organism-based, Sprague-Dawley
Set-up: regimen Single, gender Male, age 6 weeks
Conditions: in vivo, po, 0 mg/kg, route gavage, dose level Control; for APTT / Bas / Eos / Fbg / Hb / Ht / Lym / MCHC / MCV / Mono / PT / Plat / RBC / Ret / WBC: tissue Blood; for KIDNEY_L / KIDNEY_R / KIDNEY_TOTAL: tissue Kidney; for LIVER: tissue Liver; for ALP / ALT / AST / BUN / CRE / DBIL / GLC / K / LDH / Na / PL / RALB / TBIL / TC / TG / TP / gamma-GTP: tissue Plasma

O=C1NC(=O)C(c2ccccc2)(c2ccccc2)N1 [PHENYTOIN]
TERMINAL_BW (3 h): 209.3 g | APTT (3 h): 16.8 s | Bas (3 h): 0.4% | Eos (3 h): 0.8% | Fbg (3 h): 267 mg/dL | Hb (3 h): 13.4 g/dL | Ht (3 h): 40.2% | Lym (3 h): 78.6% | MCHC (3 h): 33.3% | MCV (3 h): 62.2 fL | Mono (3 h): 3% | PT (3 h): 13.9 s | Plat (3 h): 116.9 x10_4/uL | RBC (3 h): 646.8 x10_4/ul | Ret (3 h): 8.3% | WBC (3 h): 81.2 x10_2/uL | KIDNEY_L (3 h): 0.9 g | KIDNEY_R (3 h): 0.9 g | KIDNEY_TOTAL (3 h): 1.9 g | LIVER (3 h): 9.6 g | ALP (3 h): 1709.4 IU/L | ALT (3 h): 37 IU/L | AST (3 h): 75.6 IU/L | BUN (3 h): 9.8 mg/dL | CRE (3 h): 0.2 mg/dL | DBIL (3 h): 0.018 mg/dL | GLC (3 h): 177.4 mg/dL | K (3 h): 4.1 meq/L | LDH (3 h): 127.8 IU/L | Na (3 h): 141.6 meq/L | PL (3 h): 145.2 mg/dL | RALB (3 h): 2.5 g/dL | TBIL (3 h): 0.056 mg/dL | TC (3 h): 75.8 mg/dL | TG (3 h): 61.4 mg/dL | TP (3 h): 5.4 g/dL | gamma-GTP (3 h): 1.2 IU/L | TERMINAL_BW (6 h): 207.9 g | APTT (6 h): 16.8 s | Bas (6 h): 0.6% | Eos (6 h): 0.8% | Fbg (6 h): 297.4 mg/dL | Hb (6 h): 13.3 g/dL | Ht (6 h): 39.4% | Lym (6 h): 79.4% | MCHC (6 h): 33.6% | MCV (6 h): 61.5 fL | Mono (6 h): 3% | PT (6 h): 14.1 s | Plat (6 h): 121.6 x10_4/uL | RBC (6 h): 641.4 x10_4/ul | Ret (6 h): 7.5% | WBC (6 h): 97.9 x10_2/uL | KIDNEY_L (6 h): 0.9 g | KIDNEY_R (6 h): 0.9 g | KIDNEY_TOTAL (6 h): 1.8 g | LIVER (6 h): 8.5 g | ALP (6 h): 1520.6 IU/L | ALT (6 h): 34.4 IU/L | AST (6 h): 67.6 IU/L | BUN (6 h): 8.6 mg/dL | CRE (6 h): 0.2 mg/dL | DBIL (6 h): 0.018 mg/dL | GLC (6 h): 184.2 mg/dL | K (6 h): 4.3 meq/L | LDH (6 h): 96.2 IU/L | Na (6 h): 142.2 meq/L | PL (6 h): 139.6 mg/dL | RALB (6 h): 2.5 g/dL | TBIL (6 h): 0.05 mg/dL | TC (6 h): 77.8 mg/dL | TG (6 h): 44.2 mg/dL | TP (6 h): 5.4 g/dL | gamma-GTP (6 h): 1.4 IU/L | TERMINAL_BW (9 h): 205.9 g | APTT (9 h): 15.5 s | Bas (9 h): 0.6% | Eos (9 h): 0.8% | Fbg (9 h): 295.6 mg/dL | Hb (9 h): 13.5 g/dL | Ht (9 h): 40.5% | Lym (9 h): 76.2% | MCHC (9 h): 33.4% | MCV (9 h): 61.1 fL | Mono (9 h): 2.6% | PT (9 h): 13.8 s | Plat (9 h): 126 x10_4/uL | RBC (9 h): 663.4 x10_4/ul | Ret (9 h): 7.6% | WBC (9 h): 79.7 x10_2/uL | KIDNEY_L (9 h): 0.9 g | KIDNEY_R (9 h): 0.9 g | KIDNEY_TOTAL (9 h): 1.8 g | LIVER (9 h): 8.7 g | ALP (9 h): 1437.2 IU/L | ALT (9 h): 29.8 IU/L | AST (9 h): 68.8 IU/L | BUN (9 h): 9.8 mg/dL | CRE (9 h): 0.2 mg/dL | DBIL (9 h): 0.014 mg/dL | GLC (9 h): 177.4 mg/dL | K (9 h): 4.2 meq/L | LDH (9 h): 93.4 IU/L | Na (9 h): 142.4 meq/L | PL (9 h): 131.6 mg/dL | RALB (9 h): 2.5 g/dL | TBIL (9 h): 0.052 mg/dL | TC (9 h): 72.4 mg/dL | TG (9 h): 40 mg/dL | TP (9 h): 5.5 g/dL | gamma-GTP (9 h): 1.6 IU/L | TERMINAL_BW (24 h): 224.3 g | APTT (24 h): 17.7 s | Bas (24 h): 0.4% | Eos (24 h): 1% | Fbg (24 h): 273.4 mg/dL | Hb (24 h): 13.2 g/dL | Ht (24 h): 39.1% | Lym (24 h): 79.8% | MCHC (24 h): 33.7% | MCV (24 h): 62.6 fL | Mono (24 h): 2.2% | PT (24 h): 14.4 s | Plat (24 h): 121.9 x10_4/uL | RBC (24 h): 625.6 x10_4/ul | Ret (24 h): 7.8% | WBC (24 h): 108.2 x10_2/uL | KIDNEY_L (24 h): 1 g | KIDNEY_R (24 h): 1 g | KIDNEY_TOTAL (24 h): 2.1 g | LIVER (24 h): 10.6 g | ALP (24 h): 1864.2 IU/L | ALT (24 h): 42.4 IU/L | AST (24 h): 75.2 IU/L | BUN (24 h): 14.8 mg/dL | CRE (24 h): 0.2 mg/dL | DBIL (24 h): 0.024 mg/dL | GLC (24 h): 187.6 mg/dL | K (24 h): 4 meq/L | LDH (24 h): 95.6 IU/L | Na (24 h): 142.6 meq/L | PL (24 h): 152 mg/dL | RALB (24 h): 2.6 g/dL | TBIL (24 h): 0.042 mg/dL | TC (24 h): 74.8 mg/dL | TG (24 h): 100.2 mg/dL
